Measurements reported in patent publication US20180118786A1, “NOVEL lNHIBITORS OF THE ENZYME ACTIVATED FACTOR XII (FXIIA)” (ECOLE POLYTECHNIQUE FEDERALE DE LAUSANNE (EPFL), priority 2015, published 2018).
Starred links: 1 amine or outer side, 2 acyl side, 3 side chain; linkers in the order of their positions; H or OH if unused. Positions of bridges follow the written chain, without caps; N, C: chain ends. Non-standard residues stand in square brackets, D forms with d. Residues, ends and D or L forms follow the SMILES beside them. TATA = O=C(CC[*:1])N1CN(C(=O)CC[*:2])CN(C(=O)CC[*:3])C1; Phe(4-F) = N[C@@H](Cc1ccc(F)cc1)C(=O)O; β3hR = N=C(N)NCCC[C@H](N)CC(=O)O

How the values were obtained:
in vitro = conditions: human, plasma
Procedure: Peptide (2 μl of 2 mM in H2O) was added to 398 μl human plasma (final peptide concentration was 10 μM in 400 μl final volume). The mixture was incubated in the water bath at 37° C. At 8 different time points (0 h, 30 min, 1 h, 2 h, 4 h, 8 h, 12 h, 24 h and in some cases 48 h) a sample of 30 μl was removed, diluted to 200 μl with the same buffer used for protease inhibition assay (see above) and heat-inactivated for 20 min at 65° C. During this step proteases present in plasma are being inactivated, that would otherwise interfere with the subsequently performed enzymatic assay. […] Before analysis, plasma samples were centrifuged for 5 min at 16′000 g and the supernatant was collected. A twofold dilution series ranging from 0.0005-0.5 μM was prepared. IC50 values were derived from the fitted curve using the equation indicated above. Residual inhibition in % was calculated using the following formula: IC50, 0h/IC50, xh*100 wherein IC50, 0h is the functional strength of the inhibitor at time point 0 and IC50, xh the functional strength of inhibitor after one of the different plasma incubation period mentioned above.
The activity of the plasma proteases was heat-inactivated by incubation of the samples at 65° C. for 10 minutes.

human β-FXIIa [1] = target: T1, human β-FXIIa (Homo sapiens, UniProt P00748); assay: Protease inhibition assay (Example 3); assay type: biochemical; conditions: for improvement of Ki / binding: relative to FXII618 (1)
T1 construct: human β-FXIIa, a naturally occurring proteolytic product of FXIIa comprising only the catalytic domain; purchased Molecular Innovations HFXIIAB
T1 sequence (P00748 373-615 limits assumed, other chains not shown): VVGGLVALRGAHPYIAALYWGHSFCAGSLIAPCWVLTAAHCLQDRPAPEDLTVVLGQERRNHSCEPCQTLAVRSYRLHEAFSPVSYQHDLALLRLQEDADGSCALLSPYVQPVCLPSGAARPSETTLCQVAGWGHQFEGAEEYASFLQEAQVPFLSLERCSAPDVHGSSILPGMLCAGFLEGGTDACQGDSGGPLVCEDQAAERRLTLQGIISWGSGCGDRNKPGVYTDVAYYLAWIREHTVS
Procedure: The inhibitory activity of the synthesized bicyclic peptides was determined by incubation with the protease and quantification of the residual activity at various peptide concentrations using a fluorogenic substrate. A 2 mM (by weight) stock solution in H2O was made for each peptide. For the assay, serial dilutions were made from the peptide stock solution using aqueous buffer containing 10 mM TRIS, 150 mM NaCl, 10 mM MgCl (hexahydrate), 1 mM CaCl2 (dihydrate), 0.01% (v/v) Triton X-100, 0.1% (w/v) BSA and pH adjusted to 7.4. The final concentration of human 3-FXIIa (HFXIIAB; Molecular Innovations) was 1 nM or 0.5 nM. […] The final concentration of the fluorogenic substrate Boc-Q-G-R-AMC (Bachem) was 50 μM and the final DMSO content was 5%. The fluorescence was measured using an Infinite M200 Pro plate reader (Tecan) with filters 368 nm for excitation and 467 nm for emission. The measurement was performed for 60 min with a read every minute at 25° C. IC50 and Ki values were calculated using GraphPad Prism 5 software.

human β-FXIIa [2] = target: T1, human β-FXIIa; assay: Protease inhibition assay (Example 2); assay type: biochemical; conditions: for improvement of inhibitory activity / affinity: relative to parent peptide 2
Procedure: The inhibitory activity of bicyclic peptides was determined by incubation with proteases and quantification of their residual activity with a fluorogenic substrate. Residual enzymatic activities were measured in buffer containing 10 mM Tris-CI, pH 7.4, 150 mM NaCl, 10 mM MgCl2, 1 mM CaCl2, 0.1% w/v BSA, 0.01% v/v Triton-X100, and 5% v/v DMSO in a volume of 150 μL. In a first series of experiments 50 μM of the fluorogenic substrate Z-Gly-Gly-Arg-AMC and 2.5 nM of enzyme (human p-FXIIa, HFXIIAB; Molecular Innovations) was used.
Dilutions of peptides were prepared ranging from 0.00001-4 μM. Fluorescence intensity was measured with an Infinite M200Pro fluorescence plate reader (excitation at 368 nm, emission at 467 nm; Tecan, Männedorf, Switzerland). The reactions were performed at 25° C., Sigmoidal curves were fitted to the data using the following dose response equation wherein x=peptide concentration, y=% activity of reaction without peptide, A1=100%, A2=0%, p=1. IC50 values were derived from the fitted curve.

Question: With `CC(C)C[C@@H]1NC(=O)[C@H](CCC(N)=O)NC(=O)[C@H](Cc2c[nH]cn2)NC(=O)[C@@H]2CSCCC(=O)N3CN(CN(C3)C(=O)CCSC[C@H](NC(=O)[C@@H](CO)NC(=O)[C@H](N)CCCNC(=N)N)C(=O)N[C@@H](Cc3ccc(F)cc3)C(=O)N[C@@H](CCCNC(=N)N)C(=O)N[C@@H](CC(C)C)C(=O)N3CCC[C@H]3C(=O)N2)C(=O)CCSC[C@@H](C(=O)N[C@@H](CCCNC(=N)N)C(N)=O)NC(=O)C[C@H](CCCNC(=N)N)NC1=O` [JS33] (H-[dR][dS]C[Phe(4-F)]RLPCHQL[β3hR]CR-NH2; linker 3-8-13 via TATA; N-terminus and C-terminus assumed) as the compound, how does the half-life at 10 μM (in vitro) read?
Answer: 8640 ± 1800 min

Question: With `CC(C)C[C@@H]1NC(=O)[C@H](CCC(N)=O)NC(=O)[C@H](Cc2c[nH]cn2)NC(=O)[C@@H]2CSCCC(=O)N3CN(CN(C3)C(=O)CCSC[C@H](NC(=O)[C@@H](CO)NC(=O)[C@H](N)CCCNC(=N)N)C(=O)N[C@@H](Cc3ccc(F)cc3)C(=O)N[C@@H](CCCNC(=N)N)C(=O)N[C@@H](CC(C)C)C(=O)N3CCC[C@H]3C(=O)N2)C(=O)CCSC[C@@H](C(=O)N[C@@H](CCCNC(=N)N)C(N)=O)NC(=O)[C@H](CCCNC(=N)N)NC1=O` [JS34] (H-[dR][dS]C[Phe(4-F)]RLPCHQLRCR-NH2; linker 3-8-13 via TATA; N-terminus and C-terminus assumed) as the compound, how does the half-life at 10 μM (in vitro) read?
Answer: 2320 min

Question: For `CC(C)C[C@@H]1NC(=O)[C@H](CCC(N)=O)NC(=O)[C@H](CCCNC(=N)N)NC(=O)[C@@H]2CSCCC(=O)N3CN(CN(C3)C(=O)CCSC[C@H](NC(=O)[C@@H](CO)NC(=O)[C@H](N)CCCNC(=N)N)C(=O)N[C@@H](Cc3ccc(F)cc3)C(=O)N[C@@H](CCCNC(=N)N)C(=O)N[C@@H](CC(C)C)C(=O)N3CCC[C@H]3C(=O)N2)C(=O)CCSC[C@@H](C(=O)N[C@@H](CCCNC(=N)N)C(N)=O)NC(=O)C[C@H](CCCNC(=N)N)NC1=O` [JS35] (H-[dR][dS]C[Phe(4-F)]RLPCRQL[β3hR]CR-NH2; linker 3-8-13 via TATA; N-terminus and C-terminus assumed), which half-life at 10 μM (in vitro) is on record?
Answer: 1310 min

Question: Which results are given for `CC(C)C[C@@H]1NC(=O)[C@H](CCC(N)=O)NC(=O)[C@H](CCCNC(=N)N)NC(=O)[C@@H]2CSCCC(=O)N3CN(CN(C3)C(=O)CCSC[C@H](NC(=O)[C@@H](N)CCCNC(=N)N)C(=O)N[C@@H](Cc3ccccc3)C(=O)N[C@@H](CCCNC(=N)N)C(=O)N[C@@H](CC(C)C)C(=O)N3CCC[C@H]3C(=O)N2)C(=O)CCSC[C@@H](C(=O)N[C@@H](CCCNC(=N)N)C(N)=O)NC(=O)C[C@H](CCCNC(=N)N)NC1=O` [compound 100]?
Answer: Ki (human β-FXIIa [1]): 5.4 ± 0.1 nM; improvement of Ki / binding (human β-FXIIa [1]): 4 fold

Question: For `CC(C)C[C@@H]1NC(=O)[C@H](CCC(N)=O)NC(=O)[C@H](CCCNC(=N)N)NC(=O)[C@@H]2CSCCC(=O)N3CN(CN(C3)C(=O)CCSC[C@H](NC(=O)[C@@H](N)CCCNC(=N)N)C(=O)N[C@@H](Cc3ccccc3)C(=O)N[C@@H](CCCNC(=N)N)C(=O)N[C@@H](CC(C)C)C(=O)N3CCC[C@H]3C(=O)N2)C(=O)CCSCC[C@@H](C(=O)N[C@@H](CCCNC(=N)N)C(N)=O)NC(=O)C[C@H](CCCNC(=N)N)NC1=O` [compound 107], which Ki (human β-FXIIa [1]) is on record?
Answer: 18 ± 2 nM

Question: For `CC(C)C[C@@H]1NC(=O)[C@H](CCC(N)=O)NC(=O)[C@H](CCCNC(=N)N)NC(=O)[C@@H]2CSCCC(=O)N3CN(CN(C3)C(=O)CCSC[C@H](NC(=O)[C@@H](N)CCCNC(=N)N)C(=O)N[C@@H](Cc3ccccc3)C(=O)N[C@@H](CCCCN)C(=O)N[C@@H](CC(C)C)C(=O)N3CCC[C@H]3C(=O)N2)C(=O)CCSC[C@@H](C(=O)N[C@@H](CCCNC(=N)N)C(=O)N[C@@H](Cc2c[nH]c3ccccc23)C(N)=O)NC(=O)[C@H](CCCNC(=N)N)NC1=O` [peptide 10] (H-RCFKLPCRQLRCRW-NH2; linker 2-7-12 via TATA), which “reduction of inhibitory activity / affinity” value (human β-FXIIa [2]; relative to parent peptide (peptide 2 or peptide 1)) is on record?
Answer: 10 fold

Question: For `Cc1cccc(C[C@@H]2NC(=O)[C@@H](NC(=O)[C@@H](N)CCCNC(=N)N)CSCCC(=O)N3CN4CN(C3)C(=O)CCSC[C@H](NC(=O)[C@@H]3CCCN3C(=O)[C@H](CC(C)C)NC(=O)[C@H](CCCNC(=N)N)NC2=O)C(=O)N[C@@H](CCCNC(=N)N)C(=O)N[C@@H](CCC(N)=O)C(=O)N[C@@H](CC(C)C)C(=O)N[C@@H](CCCNC(=N)N)C(=O)N[C@H](C(=O)N[C@@H](CCCNC(=N)N)C(=O)N[C@@H](Cc2c[nH]c3ccccc23)C(N)=O)CSCCC4=O)c1` [peptide 52], which “improvement of inhibitory activity / affinity” value (human β-FXIIa [2]) is on record?
Answer: 2.5 fold

Question: Which “improvement of inhibitory activity / affinity” value (human β-FXIIa [2]) does the source give for `CC(C)C[C@@H]1NC(=O)[C@H](CCC(N)=O)NC(=O)[C@H](CCCNC(=N)N)NC(=O)[C@@H]2CSCCC(=O)N3CN(CN(C3)C(=O)CCSC[C@H](NC(=O)[C@@H](N)CCCNC(=N)N)C(=O)N[C@@H](Cc3cccnc3)C(=O)N[C@@H](CCCNC(=N)N)C(=O)N[C@@H](CC(C)C)C(=O)N3CCC[C@H]3C(=O)N2)C(=O)CCSC[C@@H](C(=O)N[C@@H](CCCNC(=N)N)C(=O)N[C@@H](Cc2c[nH]c3ccccc23)C(N)=O)NC(=O)[C@H](CCCNC(=N)N)NC1=O` [peptide 54] here?
Answer: around 3 fold

Question: Which “improvement of inhibitory activity / affinity” value (human β-FXIIa [2]) does the source give for `CC(C)C[C@@H]1NC(=O)[C@H](CCC(N)=O)NC(=O)[C@H](CCCNC(=N)N)NC(=O)[C@@H]2CSCCC(=O)N3CN(CN(C3)C(=O)CCSC[C@H](NC(=O)[C@@H](N)CCCNC(=N)N)C(=O)N[C@@H](Cc3ccccc3F)C(=O)N[C@@H](CCCNC(=N)N)C(=O)N[C@@H](CC(C)C)C(=O)N3CCC[C@H]3C(=O)N2)C(=O)CCSC[C@@H](C(=O)N[C@@H](CCCNC(=N)N)C(=O)N[C@@H](Cc2c[nH]c3ccccc23)C(N)=O)NC(=O)[C@H](CCCNC(=N)N)NC1=O` [peptide 56] here?
Answer: 2 fold

Question: Which Ki (human β-FXIIa [2]) does the source give for `CC(C)C[C@@H]1NC(=O)[C@H](CCC(N)=O)NC(=O)[C@H](CCCNC(=N)N)NC(=O)[C@@H]2CSCCC(=O)N3CN(CN(C3)C(=O)CCSC[C@H](N)C(=O)N[C@@H](Cc3ccccc3)C(=O)N[C@@H](CCCNC(=N)N)C(=O)N[C@@H](CC(C)C)C(=O)N3CCC[C@H]3C(=O)N2)C(=O)CCSC[C@@H](C(=O)N[C@@H](CCCNC(=N)N)C(N)=O)NC(=O)[C@H](CCCNC(=N)N)NC1=O` [peptide 62] (H-CFRLPCRQLRCR-NH2; linker 1-6-11 via TATA) here?
Answer: 932 ± 80 nM

Question: Which Ki (human β-FXIIa [2]) does the source give for `CC(C)C[C@@H]1NC(=O)[C@H](CCC(N)=O)NC(=O)[C@H](CCCNC(=N)N)NC(=O)[C@@H]2CSCCC(=O)N3CN(CN(C3)C(=O)CCSC[C@H](NC(=O)[C@@H](N)CCNC(=N)N)C(=O)N[C@@H](Cc3ccccc3)C(=O)N[C@@H](CCCNC(=N)N)C(=O)N[C@@H](CC(C)C)C(=O)N3CCC[C@H]3C(=O)N2)C(=O)CCSC[C@@H](C(=O)N[C@@H](CCCNC(=N)N)C(N)=O)NC(=O)[C@H](CCCNC(=N)N)NC1=O` [peptide 71] here?
Answer: 18.5 to 43.1 nM

Question: What about the half-life at 10 μM (in vitro) of the same compound?
Answer: 1300 ± 150 min

Question: For `CC(C)C[C@@H]1NC(=O)[C@H](CCC(N)=O)NC(=O)[C@H](CCCNC(=N)N)NC(=O)[C@@H]2CSCCC(=O)N3CN(CN(C3)C(=O)CCSC[C@H](NC(=O)[C@@H](N)CCCNC(=N)N)C(=O)N[C@@H](Cc3ccccc3)C(=O)N[C@@H](CCCNC(=N)N)C(=O)N[C@@H](CC(C)C)C(=O)N3CCC[C@H]3C(=O)N2)C(=O)CCSCC[C@@H](C(=O)N[C@@H](CCCNC(=N)N)C(N)=O)NC(=O)[C@H](CCCNC(=N)N)NC1=O` [peptide 105], which “improvement of Ki / binding” value (human β-FXIIa [1]) is on record?
Answer: 1.3 fold
